This test has as its target Trace amine-associated receptor 1 (Mus musculus, UniProt Q923Y8). In words: Radioligand Binding Assay. The protocol: Nonspecific binding was defined as the amount of [H]-(S)-4-[(ethyl-phenyl-amino)-methyl]-4,5-dihydro-oxazol-2-ylamine bound in the presence of 10 μM unlabeled ligand. All compounds were tested at a broad range of concentrations ([…]) in duplicates.

The structures appear in SMILES notation.

Sequence of Trace amine-associated receptor 1 (Q923Y8 whole entry): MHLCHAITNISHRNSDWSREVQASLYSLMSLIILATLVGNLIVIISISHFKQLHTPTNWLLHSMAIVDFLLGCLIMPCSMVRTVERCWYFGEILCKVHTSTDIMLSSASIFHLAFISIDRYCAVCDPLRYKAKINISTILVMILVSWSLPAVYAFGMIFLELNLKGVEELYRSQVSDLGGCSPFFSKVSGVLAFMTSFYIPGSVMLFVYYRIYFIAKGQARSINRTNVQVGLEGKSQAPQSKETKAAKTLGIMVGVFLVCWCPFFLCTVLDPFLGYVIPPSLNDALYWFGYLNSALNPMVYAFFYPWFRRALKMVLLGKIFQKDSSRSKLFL

As for `Fc1c(Nc2cc(Cl)nc(C(F)(F)F)n2)ccc2c1CCN1CCNC[C@@H]21` [US9828374, Example 34], the affinity corresponds to a Ki of 79.5 nM.
With `O=C(Nc1ccc2c(c1)CCN1CCNC[C@@H]21)c1cnc(C(F)(F)F)nc1` [US9828374, Example 4] the figure was 189 nM; with `Cc1cc(Nc2ccc3c(c2)CCN2CCNC[C@@H]32)nc(OCC(F)(F)F)n1` [US9828374, Example 26], 41 nM; with `Brc1ccc2c(c1)CCN1CCNC[C@@H]21` [US9828374, Example 2], 180 nM.

These data come from BindingDB's records for patent US9828374 (Hoffmann-La Roche, 2017).
